Reference: the NIST ThermoML archive (doi:10.1021/acs.jced.5b00343)

Experiments:
[1] = 101 kPa, Liquid; for speed of sound: Frequency=1.5 MHz, Sing-around technique in a fixed-path interferometer; for mass density: Vibrating tube method
[2] = refractive index (Na D-line) (dimensionless); settings: 101 kPa, Liquid, Standard Abbe refractometry

CCCCO [butan-1-ol]
Settings	mass density, [1] [kg/m3]	refractive index, [2]	speed of sound, [1] [m/s]
303.15 K	802.01	1.3948	1222.7
308.15 K	798.14	1.3927	1206.3
313.15 K	794.22	1.3907	1189.4
318.15 K	790.28	1.3875	1172.8
323.15 K	786.29	1.3848	1156.7
